Experimental data from patent publication US20260248787A9, “MEDICAMENT FOR TREATING CANCER COMPRISING OPTICALLY ACTIVE AZABICYCLO RING DERIVATIVE” (Sumitomo Pharma Co., Ltd., priority 2023, published 2026).

Key:
OCI-AML3 cells = experiment: Tumor-bearing mice transplanted with OCI-AML3 cells, with venetoclax and azacitidine, T/C (Example 13); format: in vivo; conditions: oral, 21 days
Protocol: The present compound was weighed and dissolved in 0.5 w/v % Methyl Cellulose 400 solution to give the compound concentrations of 20 mg/mL and 10 mg/mL. Venetoclax was weighed and suspended in a mixed solution of Phosal 50 propylene glycol (60%)/Polyethylene glycol-400 (30%)/Ethanol (10%) to give the compound concentration of 5 mg/mL. Azacitidine was weighed and dissolved in saline to give the compound concentration of 0.3 mg/mL.
OCI-AML3 cells (DSMZ) were intradermally implanted around the ventral region of 6-week old NOD. CB17-PrkdcSCID/J mice (female, The Jackson Laboratory Japan) at 1×10^6 cells/mouse. […] The tumor volume was measured over time from the start of the administration, and the reduction effect of the tumor volume due to the compound-administration was evaluated. The tumor volume was calculated by the following formula using short axis and long axis of the tumor measured with an electronic caliper (Mitutoyo).
The control administration group in which only the solvent was administered and the test substance administration group were compared, and T/C was calculated using the following formula to evaluate the antitumor effect.

[1] = Phase 1/2 clinical study, plasma pharmacokinetic evaluation; format: in vivo; conditions: human, oral, 140 mg, Cycle 1 Day 1, 140 mg BID Arm B (with azole), N=2, mean

**Q.** Which T/C (OCI-AML3 cells; 100 mg/kg) does the source give for `C=C1C[C@@H]2CC[C@H]1[C@@H](C(=O)N1CCC3(CC1)CN(c1ncncc1Oc1ccc(F)cc1C(=O)N(C(C)C)C(C)C)C3)N2` [the present compound, 5-fluoro-2-[(4-{7-[(1S,3S,4R)-5-methylidene-2-azabicyclo[2.2.2]octane-3-carbonyl]-2,7-diazaspiro[3.5]nonan-2-yl}pyrimidin-5-yl)oxy]-N,N-di(propan-2-yl)benzamide] here?
**A.** The T/C was 47.1%.

**Q.** And the T/C (OCI-AML3 cells; 200 mg/kg)?
**A.** Its T/C is 34.3%.

**Q.** What about the Cmax [1] of the same compound?
**A.** The Cmax was 3100 ng/mL.
